Measurements taken from PMC6332320, “Factors Influencing Oral Bioavailability of Thai Mango Seed Kernel Extract and Its Key Phenolic Principles” (Molecules, 2015).
Like-named read-outs stand apart in the source and are kept apart here. Marks after values point to notes of the source that are not given here.

Key:
[1] = Chemical stability in HBSS at pH 5, 6, 7 and 8; assay type: physicochemical
Procedure: The chemical stability of GA, MG, PGG and MSKE was determined in HBSS at pH 5, 6, 7 and 8. The test compounds were added to HBSS to obtain the final concentrations (2 and 20 μM) for each standard compound or MSKE (0.25 mg/mL), which is equivalent to concentrations of 26.70 ± 1.35 µM GA, 4.90 ± 0.38 µM MG and 27.09 ± 8.01 µM PGG. The solutions at pH 5, 7 and 8 were then incubated in a water bath at 37 °C for 4 h, whereas the solutions at pH 6 were incubated for 8 h. Samples (200 μL) were collected at different time intervals (0, 1, 2, 3 and 4 h or 0, 1, 2, 4, 6 and 8 h) and then vortexed and centrifuged at 15,500 rpm for 15 min. The supernatant was injected into the UPLC for analysis. All experiments were performed in triplicate.
(§1) The chemical and biological stabilities of the phenolic compounds were expressed as the concentration of the analyte at different time points relative to the concentration of the same analyte at time zero multiplied by 100 (% recovery).

[2] = tested on: Caco-2 cell lysates; test: Biological stability in Caco-2 cell lysates; assay type: in vitro ADME, human; details: for stability in HBSS at pH 6 (blank control) / stability in Caco-2 cell lysates / stability in inactive Caco-2 cell lysates: individual compound 100 µM; for stability in HBSS at pH 6 (blank control): HBSS pH 6, up to 24 h; for stability in Caco-2 cell lysates: active cell lysates, within 24 h; for stability in inactive Caco-2 cell lysates: inactive (heated) cell lysates
Procedure: Caco-2 cells were cultured in T75 flasks at a seeding density of 2 × 10^6 cells/flask for 12–15 days. The cell lysate was freshly prepared by washing the cells twice with ice-cold HBSS at pH 6 (12 mL). The cells were then collected by scraping and resuspending in ice-cold HBSS at pH 6 (7.5 mL/flask). The cell suspension was vortexed and sonicated in an ice water bath for 30 min to obtain the lysate, which was kept on ice until use, and its cellular protein concentration was determined using a BCA™ protein assay kit (Thermo Fisher Scientific, Rockford, IL, USA) with bovine serum albumin as a reference standard.
Many phenolic compounds were subject to sulfation and glucuronidation by Caco-2 cells at concentrations higher than 20 μM [16, 21, 43] and the metabolites of GA, MG and PGG could not be observed in Caco-2 transport experiment. Therefore, the concentration of the standard pure compounds used in this study was higher than that used in the chemical stability experiment. After preparing the cell lysate, the test compounds were prepared by dissolution in HBSS at pH 6 and then added to the lysates for a final concentration of 1.08 mg/mL protein to obtain final individual concentrations of 100 μM for GA, MG and PGG and 0.75 mg/mL for MSKE, which is equivalent to concentrations of 55.12 ± 4.57 µM GA, 7.56 ± 0.85 µM MG and 110.02 ± 17.52 µM PGG. The mixtures were then incubated in a water bath at 37 °C for 24 h, and samples (50 µL for standard compounds, and 200 µL for MSKE) were collected at 0, 4, 6 and 24 h. Each sample was then added to an ice-cold 50% methanol (150 µL for GA, MG and PGG, and 600 µL for MSKE) to stop the reaction, vortexed and centrifuged at 15,500 rpm for 15 min, and the supernatant was injected into the UPLC for analysis.
as §1

[3] = in vitro; assay type: in vitro ADME, rat; details: Sprague-Dawley, pH 6, rat fecal lysates, 24 h; for recovery at 24 h, 100 µg/mL: as principle in MSKE 100 µg/mL, relative to HBSS, read-out: relative recovery after incubation with the fecal lysates
Procedure: The rat fecal lysate was prepared according to the method of Niu et al. with slight modifications. Briefly, 3 g of feces was collected from SD rats (8–10 weeks, n = 6) were then washed with ice-cold 0.1 mM potassium phosphate buffer (KPi, 10 mL). After resuspension in ice-cold 0.1 mM KPi (20 mL), the feces were vortexed and sonicated in an ice water bath for 45 min. To obtain the fecal lysate, the mixture was centrifuged at 15,000 rpm at 4 °C for 30 min. The supernatant was collected and maintained at –80 °C until use. The protein concentration in the fecal lysate was determined using a BCA™ protein assay kit.
The prepared fecal lysate was thawed and diluted with ice-cold HBSS at pH 6 to obtain a final concentration of 0.5 mg/mL protein for each test. […] The mixtures were then incubated in water bath at 37 °C for 24 h. After samples (200 μL) were collected at each specific time point (0, 1, 2, 8, and 24 h), the reaction was stopped by adding ice-cold methanol (50 μL). The samples were then vortexed and centrifuged at 15,500 rpm for 15 min, and the supernatant was injected into the UPLC for analysis.
as §1

[4] = Excretion in urine and feces after oral administration in rats; assay type: in vivo, Sprague-Dawley rats; details: for Total Mass in Feces (0−24 h) / Total Mass in Urine (0−24 h): p.o.; for dose excreted: Sprague-Dawley, rat, blood, urine and feces, oral, 0-24 h, read-out: % recovery (total mass recovery: blood + urine + feces / initial mass)
Procedure: SD rats (five rats/group) were individually housed in stainless-steel metabolic cages, which allowed for the separation and collection of urine and feces. The rats were fasted overnight with ad libitum access to water prior to the day of the experiment. After a rat was anesthetized with isoflurane gas, the prepared suspension of test compound in an oral suspension vehicle was administered to the animals via oral gavage at a dose of 20 mg/kg for each compound in the mixture of MG and PGG or at 143 mg/kg MSKE, which is equivalent to approximate doses of 20 mg/kg PGG and 0.13 mg/kg MG. Subsequently, the rats’ tails were snipped near the tip to collect blood samples (approximately 50 µL), which were collected in heparinized tubes at 0, 0.50, 1, 2, 4, 6, 8 and 24 h. To investigate the excretion of phenolic compounds, urine and feces were collected between 0–24 h post-administration into tubes containing penicillin G (200 mg) and dry tubes, respectively, which were pre-weighted before use. After completing the pharmacokinetic study, the urine volume and dry feces weights were recorded, and all samples were stored at −80 °C until analysis.
The blood and urine samples were prepared according to our previously reported methods. The fecal samples were prepared by adding 30 mL methanol to the sample, and the mixture was then vortexed and sonicated for 30 min to obtain the fecal lysates, which were extracted via the same method.
The pharmacokinetic parameters of MG and PGG were calculated based on the non-compartmental method using WinNonlin 3.3 (Pharsight Corporation, Mountain View, CA, USA). The total mass of analytes was calculated according to the following equations (Equations (3)–(6)): The mass recovery (%) = (total mass in blood + total mass in urine + total mass in feces)/initial mass of analyte (3) Total mass in blood = C24h in blood × rat blood volume (70 mL/kg of body weight) (4) Total mass in urine = C0–24h in urine × volume of urine (0–24 h) (5) Total mass in feces = C0–24h in fecal lysate × volume of fecal lysate (30 mL) (6) where C24h in the blood is the concentration of analyte found in the blood sample at 24 h, and C0–24h in the urine and C0–24h in the fecal lysate are the concentrations of the analyte found in the urine and fecal samples, respectively, between 0 and 24 h.

[5] = as principle in MSKE 0.25 mg/mL, pH 5, 6 or 7, 4 h
[6] = as principle in MSKE 0.25 mg/mL, pH 6, 8 h
[7] = as principle in MSKE 0.25 mg/mL, pH 8, 4 h
[8] = individual compound 2 and 20 µM, pH 5 or 7, 4 h, 37 °C
[9] = MSKE 143 mg/kg (20 mg/kg PGG and 0.13 mg/kg MG)
[10] = mixture of MG and PGG 20 mg/kg each

relative recoveries after incubation with Caco-2 cell lysates ([2]; as principle in MSKE 0.75 mg/mL, 24 h, relative to HBSS)	recovery at 24 h, 100 µg/mL ([3]; rat fecal lysate) [%]	recovery at 24 h, 10 µM ([3]; rat fecal lysate, mixture of GA, MG and PGG 10 µM each, read-out: recovery after incubation with the fecal lysates) [%]	dose excreted [4, 9] [%]	dose excreted [4, 10] [%]	SMILES	chemical stability in HBSS [1, 5]	chemical stability in HBSS [1, 6]	chemical stability in HBSS [1, 7]	chemical stability in HBSS [1, 8]	stability in HBSS at pH 6 (blank control) [2]	stability in Caco-2 cell lysates [2]	stability in inactive Caco-2 cell lysates ([2]; 24 h)	recovery at 24 h, 100 µg/mL [3] [%]	Total Mass in Feces (0−24 h) [4, 9]	Total Mass in Urine (0−24 h) [4, 9]	Total Mass in Feces (0−24 h) [4, 10] [µg]	Total Mass in Urine (0−24 h) [4, 10] [µg]
–	–	–	–	–	O=C(O)c1cc(O)c(O)c(O)c1 [GA, Gallic acid]	stable	moderately increased recovery	decomposed	only stable at pH 7	stable	degraded	stable	167	39.47 ± 17.44 ^b µg	54.54 ± 26.59 µg	9.64 ± 1.91	42.95 ± 26.88
decreased relative recoveries	54.7	55.4	73.4 ± 30	< 2	COC(=O)c1cc(O)c(O)c(O)c1 [MG, methyl gallate]	increased recoveries	dramatically increased recoveries	slightly decreased recovery	only stable at pH 7	stable	degraded	stable	–	18.35 ± 10.14 ^b µg	9.81 ± 2.81 ^b µg	3.25 ± 1.73	100.36 ± 74.67
